Assay [1] relates to platelets. As to the kind of experiment: Ex vivo platelet aggregation after peptide injection in canine coronary thrombosis model. Particulars: for Ex vivo reduction of aggregation relative to control levels: 3 mg/kg. Also noted: species or system dog. As for the experimental part: For all ex vivo studies (see FIG. 3), control aggregation values were standardized to the percentages of light transmission observed in PRP and PPP samples (0% and 100%, respectively).
(§1) Animals were randomly assigned to two treatment groups: vehicle control (i.e., normal saline) or RGD peptides at various concentrations. Peptides were administered intra-atrially in both bolus and continuous injections. […] A continuous infusion of the same peptide was then started immediately after completion of this initial injection. Animals that received a 5 mg/kg bolus. also received a 5 mg/kg/hr infusion, whereas animals that received a 10 mg/kg bolus also received a 10 mg/kg/hr infusion. The anti-thrombotic effects of the peptides were monitored until 30 minutes after the occurrence of a persistent, occlusive thrombus or five hours after the initiation of electrical stimulation (whichever resulted first). If an occlusive thrombus had not developed within four hours after the initiation of current, the peptide infusion was stopped.
Platelet counts and ex vivo aggregation studies were performed one hour before and 1, 3, and 5 hours after application of anodal direct current.
Platelet aggregation was also determined ex vivo at one, three, and five hours after current application. […]
The average aggregation values determined in these studies for all of the peptide treatments are depicted in FIG. 3. […] The control responses in these studies were 70-80% of maximum. […] Here the control responses were 55-80% of maximum.

Assay [2] has as its system Electrically induced canine coronary thrombosis. The experiment in a line: Electrically induced canine coronary thrombosis, time to full occlusion. The format is in vivo, dog. On the procedure: Male mongrel dogs weighing 14 to 20 kg were selected based on proper aggregation of their platelets in response to arachidonic acid, collagen, and adenosine disphosphate (ADP) and based on similar weights and hemodynamic properties.
Before surgery, the animals were anesthetized with sodium pentobarbital (30 mg/kg, i.v.) and then intubated and ventilated on room air with positive pressure using a respirator (Harvard Apparatus, S. Natick, Mass.) at a volume of 30 ml/kg and a frequency of 12 breaths/min. Surgery, performed under aseptic conditions, was begun with the placement of cannulae into the left carotid artery and jugular vein for monitoring arterial blood pressure (Statham P23 pressure transducer, Gould, Inc., Cardiovascular Products, Oxnard, Calif.) and administering intravenous fluids.
The heart was exposed via a left thoracotomy through the 5th intercostal space. A 2-cm segment of the left circumflex coronary artery (LCCA) was isolated from surrounding tissue by blunt dissection. […] The intra-coronary electrode was constructed by attaching a 25-gauge hypodermic needle tip to a 30-gauge Teflon-insulated silver-coated copper wire. The mechanical occluder was constructed of stainless steel in a C shape with a Teflon screw (2 mm diameter) on top. It was adjusted to control vessel circumference and decrease the reactive hyperemic flow due to a 10-sec (full) occlusion by 50-70% without affecting basal coronary blood flow (FIG. 1). A monopolar epicardial electrode was sutured to the surface of the ventricle in the region of LCCA distribution to monitor ischemic changes in the electrocardiogram (ECG). The left atrium was cannulated with polythylene tubing for administration of the peptide. Continuous recordings of blood pressure, limb lead II ECG, epicardial electrogram, and mean and phasic LCCA blood flow were obtained on a Model 7 polygraph (Grass Instrument Co., Quincy, Mass.).
One hour after the completion of surgery, a 100 micro-amp continuous anodal direct current delivered from a 9 volt nickel-cadmium battery was applied to the intimal surface of the LCCA. The anode of the battery was in series with a 250,000 ohm potentiometer and the intraluminal coronary artery electrode. The electric circuit was completed by placing the cathode in a subcutaneous site. Electrical stimulation was applied for three hours. At the conclusion of each experiment, the heart was fibrillated electrically and quickly removed, and the LCCA was dissected free as far as possible to verify the position of the implanted anodal electrode.
as §1
Coronary thrombosis was quantified as the time to full occlusion. The effects of the various peptide treatments on coronary thrombosis is illustrated in FIG. 4.

The target of assay [3] is T1, Fibronectin receptor (Fn-R) (Homo sapiens, UniProt P05556+P08648).
T1 construct: similarly purified from (100 mM) octyl glucoside-extracted human placenta; from tissue; host or cells: human placenta
T1 sequence (P08648 42-894 limits assumed): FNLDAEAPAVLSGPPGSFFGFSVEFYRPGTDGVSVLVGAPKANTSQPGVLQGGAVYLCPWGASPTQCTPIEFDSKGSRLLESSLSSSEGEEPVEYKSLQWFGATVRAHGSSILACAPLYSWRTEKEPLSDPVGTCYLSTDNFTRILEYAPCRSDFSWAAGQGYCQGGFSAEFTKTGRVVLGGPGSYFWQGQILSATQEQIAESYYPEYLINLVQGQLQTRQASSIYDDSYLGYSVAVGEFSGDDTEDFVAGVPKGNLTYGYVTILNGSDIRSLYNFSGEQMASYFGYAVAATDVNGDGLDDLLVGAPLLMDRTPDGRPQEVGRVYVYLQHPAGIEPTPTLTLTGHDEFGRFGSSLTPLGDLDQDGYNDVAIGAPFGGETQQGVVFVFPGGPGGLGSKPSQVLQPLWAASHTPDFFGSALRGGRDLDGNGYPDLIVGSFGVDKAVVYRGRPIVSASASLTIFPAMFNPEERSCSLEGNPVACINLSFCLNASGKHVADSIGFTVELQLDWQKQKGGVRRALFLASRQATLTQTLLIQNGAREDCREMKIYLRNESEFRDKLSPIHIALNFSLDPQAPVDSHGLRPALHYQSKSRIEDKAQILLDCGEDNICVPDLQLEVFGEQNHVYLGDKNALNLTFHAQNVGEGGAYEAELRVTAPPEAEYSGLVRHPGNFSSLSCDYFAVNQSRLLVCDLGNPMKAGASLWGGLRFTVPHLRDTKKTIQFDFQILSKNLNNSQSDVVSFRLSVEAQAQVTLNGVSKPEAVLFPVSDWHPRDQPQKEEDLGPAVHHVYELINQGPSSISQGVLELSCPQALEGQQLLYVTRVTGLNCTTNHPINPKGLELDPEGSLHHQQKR
T1 sequence (P08648 895-1049 partner limits assumed): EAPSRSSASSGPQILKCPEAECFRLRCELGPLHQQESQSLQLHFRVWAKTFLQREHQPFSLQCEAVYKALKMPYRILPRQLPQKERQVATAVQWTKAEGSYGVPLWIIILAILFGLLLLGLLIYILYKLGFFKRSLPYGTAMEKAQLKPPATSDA
T1 sequence (P05556 21-798): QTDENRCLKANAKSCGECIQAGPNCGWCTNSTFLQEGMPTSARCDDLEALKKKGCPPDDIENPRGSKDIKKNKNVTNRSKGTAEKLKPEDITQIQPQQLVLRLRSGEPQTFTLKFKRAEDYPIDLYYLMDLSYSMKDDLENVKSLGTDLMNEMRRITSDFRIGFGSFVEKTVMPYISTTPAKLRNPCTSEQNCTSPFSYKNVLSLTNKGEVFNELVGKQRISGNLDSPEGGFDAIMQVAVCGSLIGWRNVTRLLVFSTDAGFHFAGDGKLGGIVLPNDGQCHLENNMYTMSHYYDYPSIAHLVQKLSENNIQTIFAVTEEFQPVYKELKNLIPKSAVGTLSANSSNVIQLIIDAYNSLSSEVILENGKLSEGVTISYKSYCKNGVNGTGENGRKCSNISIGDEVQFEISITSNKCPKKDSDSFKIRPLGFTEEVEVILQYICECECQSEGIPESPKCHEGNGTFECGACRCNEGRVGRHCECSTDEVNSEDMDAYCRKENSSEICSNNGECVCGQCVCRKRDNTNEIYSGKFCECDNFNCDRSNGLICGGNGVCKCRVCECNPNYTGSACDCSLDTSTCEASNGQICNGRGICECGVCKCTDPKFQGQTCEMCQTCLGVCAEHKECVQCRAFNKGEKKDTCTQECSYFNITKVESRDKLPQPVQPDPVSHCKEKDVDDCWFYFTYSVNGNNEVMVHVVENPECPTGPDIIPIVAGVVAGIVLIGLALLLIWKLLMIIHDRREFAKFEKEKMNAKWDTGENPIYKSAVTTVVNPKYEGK
The experiment in a line: Competitive ELISA for fibronectin receptor binding. Particulars: purified receptor from human placenta, read-out: FnR Binding (IC50).
Description: Peptide binding to purified Fn-R was determined by using a competitive enzyme-linked immunosorbent assay (ELISA) in which fibronectin is immobilized and the binding of solubilized Fn-R is detected with labeled anti-FnR antibodies in the presence of various concentrations of peptide analogue.
Microtiter plates were coated with 110 μl of human fibronectin (at 2 μg/ml) in TBS. The plates were washed three times with TBS that contained 0.05% Tween 20. If necessary, peptides were added after this washing in 10 microliter aliquots. The fibronectin receptor was then added in 2-fold serial dilutions with TBS containing 20 mM octyl glucoside and 2 mM MnCl2. The plates were incubated for three hours at room temperature, washed with 200 μl of the above TBS-Tween buffer. 100 μl of affinity-purified rabbit anti-human fibronectin receptor antibody was added to the wells and the plates were incubated for an additional two hours, washed twice with TBS-Tween and then distilled water. Affinity-purified goat anti-rabbit IgG conjugated to horseradish peroxidase (100 μl) was then added to each well. Bonding reactions were incubated for 16 hours at room temperature. The following day, the plates were washed twice with TBS-Tween and then distilled water. […]
IC50 s for FnR were determined by ELISA (Example III).

The subject of assay [4] is platelets. As to the kind of experiment: Ex vivo ADP-stimulated platelet aggregation in baboon PRP. Particulars: animal 2; ADP 10 μm; PRP at 0, 1 and 2 hours. On the procedure: At one- and two-hour time points, template bleeding times were measured, and blood samples were drawn to assess the hematology aggregation studies. Platelet aggregation studies were performed as described in Example V using ADP as the stimulus.
In addition, platelet aggregation studies were conducted on PRP derived from the second animal. Whole blood was drawn at three time points (0, 1 and 2 hours) of both control and experimental shunts.

[5] abbreviates: 10 mg/kg bolus + 10 mg/kg/hr infusion, intra-atrial.
The mark [6] stands for this setting: 10 mg/kg injection, all three time points.

Values joined by “and” are separate entries in the source; they are usually repeats but may differ in a detail not shown here. Equal entries are not always repeated.

We go through five substances from patent US6100236A, “Method and composition for treating thrombosis” (La Jolla Cancer Research Foundation, priority 1995, dated 2000).

RPenGHRGDWRCR: the “Ex vivo inhibition of platelet activation by collagen” value in the assay on platelets [1] (5 mg/kg injection) is “near-maximal inhibition”. Also, the “Ex vivo platelet response to ADP and AA” value in the assay with platelets [1] (5 mg/kg injection, all three time points) is listed as “completely unresponsive”. For the same substance, the “Ex vivo anti-aggregation effect at low platelet count” value in the assay with platelets [1] (5 mg/kg injection, platelet count ca. one-third of normal (104,000/ml vs. 361,000/ml)) is listed as “more pronounced”. In addition, the “Effect on time to full coronary occlusion” value (shortened to “Effect on time”) is recorded as “significantly prolonged the time to occlusion” in assay [2] (5 mg/kg bolus + 5 mg/kg/hr infusion, intra-atrial) and “completely prevented occlusion” in assay [2] (setting [5]). In addition, the “Thrombus formation in animals with low platelet levels” value in assay [2] (5 mg/kg, circulating platelet levels one-third of normal) is “able to prevent thrombus formation”.
A word on the IC50: it is the concentration at which inhibition is half-maximal. Turning to VRGDSPDG, the IC50 in assay [3] came to 0.04 µM.
As for GPenGHRGDLRCA, in the assay with platelets [1] (10 mg/kg injection, 1, 3 and 5 h), the “Ex vivo inhibition of ADP-stimulated aggregation” value is listed as “substantially inhibited”. Also, in the assay on platelets [1] (setting [6]), the “Ex vivo inhibition of AA-stimulated aggregation relative to control levels” value is 43-70% and the “Ex vivo inhibition of collagen-stimulated aggregation relative to control levels” value is recorded as 12-50%. Moreover, the “Effect on time” value in assay [2] (setting [5]) was “did not significantly influence”. The “Ex vivo platelet response to ADP” value with platelets [4] is “completely unresponsive”.
With RPenGRGDWPCR, the “Ex vivo reduction of aggregation relative to control levels” value is 20-58% in the assay with platelets [1] (one hour); 75-100% and 72-100% in the assay on platelets [1] (three and five hours, listed as 4R). In addition, the “Ex vivo platelet response to all modes of stimulation” value in the assay with platelets [1] (10 mg/kg injection, all time points) was “unresponsive to all modes of stimulation”. In addition, the “Effect on time” value was “ineffective” in assay [2] (3 mg/kg) and “prevented occlusion throughout the duration of the study” in assay [2] (setting [5]).
Regarding YRGDSPDG, in assay [3], the half-inhibitory concentration (IC50) was found to be 1.1 µM.
